Test system: SEM cells
Assay: cell viability relative to DMSO control; higher = less cytotoxic
Conditions: 48 h
Summary of the method: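 Three leukemia lines were tested: NOMO1 and SEM at 500 cells/well and P12-Ichikawa at 1000 cells/well. Each was adapted for at least four passages in each medium and seeded in 5 μl in 1536-well plates, and library compounds in DMSO were pin-dosed from 47 μM to 0.79 nM in 11 threefold steps. After 48 h at 37°C, CellTiter-Glo One luminescence was read. Viability is a percentage relative to DMSO wells on each plate, with cell-free wells as background.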

[1] = HPLM + 10% dialyzed FBS, 0.000781 µM
[2] = HPLM + 10% dialyzed FBS, 0.00234 µM
[3] = HPLM + 10% dialyzed FBS, 0.00702 µM
[4] = HPLM + 10% dialyzed FBS, 0.0211 µM
[5] = HPLM + 10% dialyzed FBS, 0.0632 µM
[6] = HPLM + 10% dialyzed FBS, 0.19 µM
[7] = HPLM + 10% dialyzed FBS, 0.569 µM
[8] = HPLM + 10% dialyzed FBS, 1.71 µM
[9] = HPLM + 10% dialyzed FBS, 5.12 µM
[10] = HPLM + 10% dialyzed FBS, 15.4 µM
[11] = HPLM + 10% dialyzed FBS, 46.1 µM
[12] = RPMI 5 mM glucose + 10% FBS, 0.000781 µM
[13] = RPMI 5 mM glucose + 10% FBS, 0.00234 µM
[14] = RPMI 5 mM glucose + 10% FBS, 0.00702 µM
[15] = RPMI 5 mM glucose + 10% FBS, 0.0211 µM
[16] = RPMI 5 mM glucose + 10% FBS, 0.0632 µM
[17] = RPMI 5 mM glucose + 10% FBS, 0.19 µM
[18] = RPMI 5 mM glucose + 10% FBS, 0.569 µM
[19] = RPMI 5 mM glucose + 10% FBS, 1.71 µM
[20] = RPMI 5 mM glucose + 10% FBS, 5.12 µM
[21] = RPMI 5 mM glucose + 10% FBS, 15.4 µM
[22] = RPMI 5 mM glucose + 10% FBS, 46.1 µM
[23] = RPMI 5 mM glucose + 10% dialyzed FBS, 0.000781 µM
[24] = RPMI 5 mM glucose + 10% dialyzed FBS, 0.00234 µM
[25] = RPMI 5 mM glucose + 10% dialyzed FBS, 0.00702 µM
[26] = RPMI 5 mM glucose + 10% dialyzed FBS, 0.0211 µM
[27] = RPMI 5 mM glucose + 10% dialyzed FBS, 0.0632 µM
[28] = RPMI 5 mM glucose + 10% dialyzed FBS, 0.19 µM
[29] = RPMI 5 mM glucose + 10% dialyzed FBS, 0.569 µM
[30] = RPMI 5 mM glucose + 10% dialyzed FBS, 1.71 µM
[31] = RPMI 5 mM glucose + 10% dialyzed FBS, 5.12 µM
[32] = RPMI 5 mM glucose + 10% dialyzed FBS, 15.4 µM
[33] = RPMI 5 mM glucose + 10% dialyzed FBS, 46.1 µM

| SMILES | cell viability [1] [%] | cell viability [2] [%] | cell viability [3] [%] | cell viability [4] [%] | cell viability [5] [%] | cell viability [6] [%] | cell viability [7] [%] | cell viability [8] [%] | cell viability [9] [%] | cell viability [10] [%] | cell viability [11] [%] | cell viability [12] [%] | cell viability [13] [%] | cell viability [14] [%] | cell viability [15] [%] | cell viability [16] [%] | cell viability [17] [%] | cell viability [18] [%] | cell viability [19] [%] | cell viability [20] [%] | cell viability [21] [%] | cell viability [22] [%] | cell viability [23] [%] | cell viability [24] [%] | cell viability [25] [%] | cell viability [26] [%] | cell viability [27] [%] | cell viability [28] [%] | cell viability [29] [%] | cell viability [30] [%] | cell viability [31] [%] | cell viability [32] [%] | cell viability [33] [%] |
| --- | --- | --- | --- | --- | --- | --- | --- | --- | --- | --- | --- | --- | --- | --- | --- | --- | --- | --- | --- | --- | --- | --- | --- | --- | --- | --- | --- | --- | --- | --- | --- | --- | --- |
| O=C(c1ccc(F)cc1)C1CCN(CCn2c(=O)[nH]c3ccccc3c2=O)CC1 | 97.6 | 103 | 112 | 101 | 101 | 98.5 | 119 | 109 | 104 | 95.7 | 93 | 118 | 121 | 126 | 126 | 106 | 120 | 120 | 119 | 119 | 125 | 116 | – | – | – | – | – | – | – | – | – | – | – |
| COc1ccc(CCC(=O)Nc2nc3ccc(Cl)cc3s2)cc1OC | 104 | 114 | 121 | 111 | 120 | 104 | 116 | 112 | 132 | 116 | 111 | 112 | 92.8 | 108 | 102 | 123 | 127 | 124 | 126 | 115 | 104 | 95 | 120 | 102 | 105 | 113 | 120 | 107 | 101 | 121 | 102 | 117 | 105 |
| Cc1nc2c([nH]1)-c1ccccc1N(C(=O)c1ccc(NC(=O)c3ccccc3-c3ccccc3)cc1)CC2 | 91.3 | 115 | 90.8 | 123 | 114 | 122 | 123 | 115 | 113 | 128 | 124 | 123 | 120 | 100 | 138 | 129 | 129 | 141 | 163 | 128 | 149 | 118 | 111 | 143 | 108 | 131 | 140 | 160 | 130 | 121 | 127 | 166 | 124 |
| COc1ccc(-c2nc3cc(C4=NNC(=O)CC4C)ccc3[nH]2)cc1 (stereo not drawn) | 86.8 | 90.5 | 99.6 | 107 | 109 | 106 | 98.7 | 101 | 111 | 92.5 | 75.4 | 92.2 | 95.2 | 105 | 102 | 112 | 121 | 111 | 120 | 101 | 119 | 90.8 | 93.6 | 91.6 | 111 | 110 | 113 | 110 | 107 | 120 | 110 | 115 | 84.4 |
| NC/1=N/C(=O)N(/C=C1)[C@H]2CC[C@@H](CO)O2 | 78.3 | 95 | 93.8 | 103 | 101 | 104 | 109 | 121 | 103 | 23 | 72.2 | 71.7 | 88.8 | 103 | 92 | 88.3 | 101 | 93.4 | 96.1 | 110 | 17 | 80.1 | 68.7 | 87.4 | 94.3 | 94.3 | 102 | 88.1 | 88.6 | 98.4 | 78 | 17.2 | 53.4 |
| CN(C)[C@H]\1[C@@H]2[C@@H](O)[C@@H]\3C(=C)C4=C(C(=CC=C4)O)C(=O)C3=C(\O)[C@@]2(O)C(=O)\C(=C1O)C(N)=O | 85.1 | 91.5 | 81.1 | 97.1 | 90.4 | 98.6 | 98.2 | 113 | 96.5 | 97.8 | 91.6 | 104 | 97.8 | 82.5 | 119 | 112 | 124 | 118 | 118 | 105 | 93.9 | 79.7 | 112 | 121 | 86.7 | 108 | 122 | 125 | 106 | 123 | 114 | 107 | 91.6 |
| CC1=C2N=C([NH]C2=CC(=C1)N3CCOCC3)\C4=C(NC[C@@H](O)C5=CC=CC(=C5)Cl)\C=C/NC4=O | 77.8 | 95.7 | 91.4 | 91.2 | 82.8 | 75.8 | 61.3 | 52.5 | 26.9 | 19.4 | 15.4 | 81.3 | 105 | 122 | 115 | 94.1 | 95.6 | 83.7 | 56.2 | 26.6 | 14.2 | 8.45 | 70.7 | 90.3 | 84.6 | 80.1 | 67.9 | 75.1 | 66.8 | 46.7 | 21.1 | 13.7 | 7.96 |
| COc1cc2nc(-c3ccc(N4CCN(C)CC4)cc3)nc(NCCN3CCOCC3)c2cc1OC | 104 | 111 | 95.7 | 102 | 112 | 44.1 | 11.3 | 8.34 | 4.72 | 4.43 | 2.62 | 108 | 115 | 91 | 111 | 107 | 107 | 41.1 | 14.1 | 7.04 | 3.02 | 2.56 | 114 | 106 | 107 | 102 | 111 | 81.7 | 29.3 | 10.7 | 5.08 | 3.57 | 2.59 |
